Assay results from patent publication US8983257B2, “Therapeutic light delivery apparatus, method, and system” (Nomir Medical Technologies, Inc., priority 2002, dated 2015).
Where “and” joins values, the source holds several entries; their conditions need not be identical. Identical values can stand only once. Entries after “also recorded” stand apart in the source; their conditions may differ.

Assays:
[1] = test system: MRSA colonization in the nares; assay: Human study Part One: nasal colonization of MRSA, NOVEON laser alone, with H2O2 or with topical erythromycin; format: in vivo, Staphylococcus aureus; settings: for MRSA Average: per patient, mean of triplicate plates, all arms with NOVEON laser
Protocol: (§1) This investigational protocol was an open-label study of subjects who are colonized with MRSA in the nares (nostril). The study was done in two parts.
(§2) In this human study, three arms were produced. […] This was done on day 1 and again on day three; and Arm #3: ⅓ of the subjects were treated with the laser and then a topical antibiotic three times a day for five days. Prior to enrollment in this study, prospective subjects met all of the following criteria: age≧18 years and ≦70 years of age; previous positive MRSA culture; negative urine pregnancy test or post-menopausal for one year; willing to comply with study requirements, including return visits and self-application of topical antibiotics; and willing to provide informed consent to participate. Prospective subjects were excluded from this study if any of the following criteria were met: pregnancy; patients who are severely immunocompromised (such as may occur in AIDS, renal transplant regimens, immunosuppressed states consequent to malignancy or agents used in rendering oncologic care, or who suffer from end stage renal disease); diabetic patients; allergy to antimicrobials being used in the study (group 3).
(§3) All participants underwent an initial quantitative assessment for nasal carriage of S. aureus, during their first visit. Each participant had the anterior nares (each nostril) sampled for culture with a circular movement (three rotations on each side) of a sterile wood applicator plain Rayon® tipped swab in each nostril and placed in a labeled tube. 2 ml of room temp phosphate buffered saline was placed in the tube after the removal of the swab (to completely cover the swab in the tube). Each swab was then placed back in the tube and the tube was then vortexed for 15 seconds to disperse isolates of MRSA and/or MSSA into the PBS solution. Aliquots of PBS from the tube were plated in the following manner: 100 μl from each tube was lawn plated in triplicate (3×) on selective Chromogenic MRSA And MSSA agar. Plates were placed in incubator within 30 minutes of the plating procedure, and colonies were counted manually, and recorded 18 hrs after plating.
(§4) On day one of the study, all subjects underwent this exact procedure in arms 1 and 2 of the study two minutes before the laser procedure. They again were sampled in the same manner 2 minutes after the laser procedure. In the third arm of the study, they were swabbed two minutes before the procedure and the first antibiotic administration was completed after the laser therapy. The post/laser swab sample was taken for this arm 20 min later.
(§5) On day three of the study, all subjects from arms one two and three underwent the exact same procedures as day 1 of the study.
(§6) On day five all subjects from all arms underwent just one swabbing per nostril with the exact same sampling procedure one time.
(§7) 3% OTC hydrogen peroxide was applied to a cotton pledget for application to the subject prior to irradiation. This was inserted in the nose for 120 seconds and then removed. The subjects were then given doses of phototherapeutic near infrared radiation as described.
(§8) The subjects were first given doses of phototherapeutic near infrared radiation as described. […] The swab was inserted approximately 1 cm in to the anterior nares and rotated 360 degrees several times and removed. Patients were instructed to perform the exact application procedure 3 times a day for the remaining 5 days.
(§9) The NOVEON™ laser was used for two (2) six-minute treatments in each nostril on day (1) and day (3) of the study.
(§10) The laser was calibrated before the first treatment of the day. Intermittent temperature testing of the treatment site was performed on each subject using a noncontact infrared thermometer (Raytek Minitemp), 30-60 second intervals. If a temperature of 110 F degrees was reached, or the patient complained of pain, the laser treatment was interrupted and only resumed when the patient was comfortable.

[2] = test system: MSSA colonies in the nares; assay: Human study Part One: nasal colonization of MSSA, NOVEON laser alone, with H2O2 or with topical erythromycin; format: in vivo, Staphylococcus aureus; settings: per patient, mean of triplicate plates, all arms with NOVEON laser
Protocol: as §1, §2, §3, §4, §5, §6, §7, §8, §9, §10

MRSA [3] = assay: MRSA CFU counts on agar with trimethoprim or erythromycin after sub-lethal NIMELS laser (Example VIII); format: cell-based, Staphylococcus aureus; settings: plates B-4 1 to 5
Text: The following illustrates the general antibacterial methods according to the invention, using a MRSA model for the in vitro Experiments V and VIII-XII.
a) μ1 is sub-lethal dosimetry from the NIMEL laser system on MRSA as a control and;

MRSA [4] = assay: MRSA/antimicrobial potentiation Experiment 4: CFU with or without methicillin, penicillin G or erythromycin, groups A4 to F4; format: cell-based, Staphylococcus aureus; settings: for Laser Effect (+Drug): ratio of AVG Exp with drug to Cont with drug; for Drug Effect / Fold increase in antibiotic sensitivity: 0.5 μg/ml penicillin G; for Drug Effect: ratio of AVG with drug to without drug; for AVG (CFU) / CFU/ml / CFU: agar with 0.5 μg/ml penicillin G
Protocol: Two different laser dosages based on an effective dose established in previous experiments were used to treat a saline-suspension of logarithmically growing MRSA, labeled A4 to F4.
After 24 hrs of growth at 37° C. colonies were counted.

[5] = Initial Analysis, Post-treatment swab, left nostril
[6] = Initial Analysis, Post-treatment swab, right nostril
[7] = Initial Analysis, Pre swab, left nostril
[8] = Initial Analysis, Pre swab, right nostril
[9] = Second Analysis, Post-treatment swab, left nostril
[10] = Second Analysis, Post-treatment swab, right nostril
[11] = Second Analysis, Pre swab, left nostril
[12] = Second Analysis, Pre swab, right nostril
[13] = Third Analysis, Swab, left nostril
[14] = Third Analysis, Swab, right nostril

For `OO` [H2O2, hydrogen peroxide], the “outcome of the Laser plus H2O2 arm (in words)” value ([1]; human subjects, 3% hydrogen peroxide in the nose for 120 seconds, then laser, day 1 and day 3) was “may have had some transient benefit in some of the patients, but no obvious long-term efficacy”.
For `OO` [Peroxide], the “s. aureus Average” value [2, 5] was 0 CFU (2×) and 20 CFU and 1 CFU, the “s. aureus Average” value [2, 6] was 0 CFU and 506 CFU and 146 CFU and 3272 CFU and the “s. aureus Average” value [2, 7] was 1 CFU and 53 CFU and 17 CFU and 124 CFU. The “s. aureus Average” value [2, 8] was 0 CFU and 29 CFU and 285 CFU and 3996 CFU, the “s. aureus Average” value [2, 9] was 0 CFU (3×) and 10 CFU and the “s. aureus Average” value [2, 10] was 0 CFU and 126 CFU and 5 CFU and 3589 CFU. The “s. aureus Average” value [2, 11] was 1 CFU and 206 CFU and 4 CFU and 12 CFU, the “s. aureus Average” value [2, 12] was 1 CFU and 94 CFU and 257 CFU and 4373 CFU and the “s. aureus Average” value [2, 13] was 1 CFU and 868 CFU and 28 CFU and 0 CFU. For the same compound, the “s. aureus Average” value [2, 14] was 1 CFU and 586 CFU and 52 CFU and 3493 CFU, the “MRSA Average” value [1, 5] was 0 CFU (2×) and 22 CFU and 1 CFU and the “MRSA Average” value [1, 6] was 0 CFU (2×) and 455 CFU and 2752 CFU. The “MRSA Average” value [1, 7] was 0 CFU (2×) and 63 CFU and 4 CFU, the “MRSA Average” value [1, 8] was 0 CFU (2×) and 30 CFU and 4032 CFU and the “MRSA Average” value [1, 9] was 0 CFU (3×) and 12 CFU. The “MRSA Average” value [1, 10] was 0 CFU (2×) and 114 CFU and 3347 CFU, the “MRSA Average” value [1, 11] was 0 CFU (2×) and 180 CFU and 17 CFU and the “MRSA Average” value [1, 12] was 0 CFU (2×) and 90 CFU and 3099 CFU. For the same compound, the “MRSA Average” value [1, 13] was 0 CFU (3×) and 827 CFU and the “MRSA Average” value [1, 14] was 0 CFU (2×) and 563 CFU and 3648 CFU.
In the case of `COc1cc(Cc2cnc(N)nc2N)cc(OC)c1OC` [Trimethoprim], the “MRSA colony count, CONTROL (no laser), trimeth 2 ug/ml” value (MRSA [3]; no laser, agar with trimethoprim 2 ug/ml) was 145 and 213 and 198 and 240 and 220 and the “MRSA colony count, EXPERIMENTAL, trimeth 2 ug/ml” value (MRSA [3]; sub-lethal NIMELS laser, then plated on agar with trimethoprim 2 ug/ml) was 100 and 110.
In the case of Penicillin, the “Laser Effect (+Drug)” value (MRSA [4]; Group C4, 0.5 μg/ml penicillin G) was 0.28, the “Drug Effect” value (MRSA [4]; Group C4, Cont (no laser)) was 0.75 and the “AVG (CFU)” value (MRSA [4]; Group C4, Cont (no laser)) was 108.4 CFU. The CFU/ml (MRSA [4]; Group C4, Cont (no laser)) was 3.25E+08 CFU/ml, the CFU (MRSA [4]; Group C4, Cont (no laser), replicate plates 1-5, 24 hrs 37° C.) was 106 CFU and 99 CFU and 102 CFU and 113 CFU and 122 CFU and the “Drug Effect” value (MRSA [4]; Group C4, Exp (laser treated)) was 0.34. The “AVG (CFU)” value (MRSA [4]; Group C4, Exp (laser treated)) was 30.4 CFU, the CFU/ml (MRSA [4]; Group C4, Exp (laser treated)) was 9.12E+07 CFU/ml and the CFU (MRSA [4]; Group C4, Exp (laser treated), replicate plates 1-5) was 25 CFU and 33 CFU (2×) and 19 CFU and 42 CFU. For the same compound, the “Laser Effect (+Drug)” value (MRSA [4]; Group D4, 0.5 μg/ml penicillin G) was 0.18, the “Drug Effect” value (MRSA [4]; Group D4, Cont (no laser)) was 1.07 and the “AVG (CFU)” value (MRSA [4]; Group D4, Cont (no laser)) was 132.8 CFU. For the same compound, the CFU/ml (MRSA [4]; Group D4, Cont (no laser)) was 3.98E+08 CFU/ml, the CFU (MRSA [4]; Group D4, Cont (no laser), replicate plates 1-5, 24 hrs 37° C.) was 101 CFU and 111 CFU and 138 CFU and 132 CFU and 182 CFU and the “Drug Effect” value (MRSA [4]; Group D4, Exp (laser treated)) was 0.31. For the same compound, the “AVG (CFU)” value (MRSA [4]; Group D4, Exp (laser treated)) was 23.8 CFU, the CFU/ml (MRSA [4]; Group D4, Exp (laser treated)) was 7.14E+07 CFU/ml and the CFU (MRSA [4]; Group D4, Exp (laser treated), replicate plates 1-5) was 14 CFU and 23 CFU and 22 CFU and 29 CFU and 31 CFU. The “Fold increase in antibiotic sensitivity” value (MRSA [4]; grouping C4) was 2.21, the “Fold increase in antibiotic sensitivity” value (MRSA [4]; grouping D4) was 3.45 and the “synergy or potentiation with NIMELS in growth inhibition of MRSA colonies (in words)” value (MRSA [4]; sub-lethal NIMELS dosimetry, bar chart figure) was “synergistic effects; also recorded: potentiated by sub-lethal NIMELS dosimetry”. The “reversal of MRSA resistance in vitro by dual wavelength NOVEON laser (in words)” value (MRSA [4]; temperature levels not lethal to the organism) was “successful reversal of MRSA resistance”.
